Data published in US12396459B2, “Synergistically effective herbicide composition comprising pyridate and at least one defined 4-HPPD inhibitor” (BELCHIM CROP PROTECTION NV, priority 2018, dated 2025).

Key:
Assay type in all cases: in vivo
Brassica napus = test: Field trial post-emergence in maize: BRSNN; settings: # = 1, g a.c./ha: PYR 300, MES 100, PYR + MES 300 + 90
Procedure: (§1) Herbicidal activity of herbicide compositions according to the first aspect of the present invention with regard to different types of unwanted vegetation was determined during trials performed on test fields (field trials). Individual compositions comprising pyridate and individual compositions comprising a defined 4-HPPD inhibitor are compared with a herbicide composition according to the invention comprising both pyridate and a defined 4-HPPD inhibitor. The expected activity of the combination of the active compounds pyridate and a defined 4-HPPD inhibitor is calculated according to above mentioned calculation method by Colby, in order to evaluate a synergistic effect between pyridate and a defined 4-HPPD inhibitor.
(§2) Herbicidal activity was determined by applying herbicide compositions on emerged unwanted vegetation on fields where maize was cultivated. Pyridate and a defined 4-HPPD inhibitor were applied as a tank mixture by mixing these active compounds prior to use in a spray tank. The corresponding mixture was in the form of a spray liquor. Besides, spray liquors of individual compositions comprising pyridate and of individual compositions comprising a defined 4-HPPD inhibitor were used. Test plants of unwanted vegetation with a growth stage corresponding to BBCH 10-18 (according to the extended BBCH-scale) were sprayed with the active compound preparations such that particular desired amounts of active compounds are applied per unit area. Spray liquor was diluted with water to arrive at an application volume of 50 to 450 L/ha. At a specified number of days after application (DAA), the degree of damage to the unwanted vegetation is rated in % of plants of unwanted vegetation that were killed, which was assessed by visually controlling the plants.

Capsella bursa-pastoris = test: Field trial post-emergence in maize: CAPBP
Procedure: as §1, §2

Cirsium arvense = test: Field trial post-emergence in maize: CIRAR; settings: # = 1, g a.c./ha: PYR 300, MES 100, PYR + MES 300 + 90
Procedure: as §1, §2

Echinochloa crus-galli = test: Field trial post-emergence in maize: ECHCG; settings: for herbicidal effect (h.e.): g a.c./ha: PYR 300, MES 100, PYR + MES 300 + 90
Procedure: as §1, §2

Galinsoga parviflora = test: Field trial post-emergence in maize: GASPA; settings: 31-48 DAA; # = 3; g a.c./ha: PYR 300, MES 100, PYR + MES 300 + 90
Procedure: as §1
(§3) Herbicidal activity was determined by applying herbicide compositions on emerged unwanted vegetation on fields where maize was cultivated. Pyridate and a defined 4-HPPD inhibitor were applied as a tank mixture by mixing these active compounds prior to use in a spray tank. The corresponding mixture was in the form of a spray liquor. […] At a specified number of days after application (DAA), the degree of damage to the unwanted vegetation is rated in % of plants of unwanted vegetation that were killed, which was assessed by visually controlling the plants.

Hibiscus ternatus = test: Field trial post-emergence in maize: HIBTR; settings: 7-14 DAA; # = 2; g a.c./ha: PYR 300, MES 100, PYR + MES 300 + 90
Procedure: as §1, §3

Papaver rhoeas = test: Field trial post-emergence in maize: PAPRH; settings: # = 1, g a.c./ha: PYR 300, MES 100, PYR + MES 300 + 90
Procedure: as §1, §2

Fallopia convolvulus = test: Field trial post-emergence in maize: POLCO
Procedure: as §1, §2

Persicaria maculosa = test: Field trial post-emergence in maize: POLPE; settings: for herbicidal effect (h.e.): g a.c./ha: PYR 300, MES 100, PYR + MES 300 + 90
Procedure: as §1, §2

Solanum nigrum = test: Field trial post-emergence in maize: SOLNI; settings: for herbicidal effect (h.e.): g a.c./ha: PYR 300, MES 100, PYR + MES 300 + 90
Procedure: as §1, §2

Stachys arvensis = test: Field trial post-emergence in maize: STAAR; settings: 7-14 DAA; # = 1; g a.c./ha: PYR 300, MES 100, PYR + MES 300 + 90
Procedure: as §1, §3

Xanthium spinosum = test: Field trial post-emergence in maize: XANSP; settings: 7-14 DAA; # = 3; g a.c./ha: PYR 300, MES 100, PYR + MES 300 + 90
Procedure: as §1, §3

Amaranthus retroflexus = test: Field trial post-emergence in maize: AMARE; settings: 13-14 DAA, # = 1
Procedure: as §1, §2

Digitaria sanguinalis = test: Examples 6-8 herbicidal effect: DIGSA; settings: 7 DAA
Setaria verticillata = test: Examples 6-8 herbicidal effect: SETVE; settings: 7 DAA
Galium aparine = test: Field trial post-emergence in maize: GALAP
Procedure: as §1, §2
(§4) Example 1 concerns a herbicide composition comprising a combination of pyridate and mesotrione, which was applied post-emergence on unwanted vegetation on a field where maize was cultivated, according to the test conditions mentioned above.

Mercurialis annua = test: Field trial post-emergence in maize: MERAN
Procedure: as §1, §2, §4

Rumex obtusifolius = test: Field trial post-emergence in maize: RUMOB
Procedure: as §1, §2, §4

[1] = g a.c./ha: PYR 10, TEM 22, PYR + TEM 10 + 100
[2] = g a.c./ha: PYR 300, PYR + MES 300 + 80
[3] = g a.c./ha: PYR 300, SCT 300, PYR + SCT 300 + 300
[4] = g a.c./ha: PYR 300, TEM 100, PYR + TEM 300 + 100
[5] = g a.c./ha: PYR 450, SCT 450, PYR + SCT 300 + 450
[6] = g a.c./ha: PYR 600, PYR + SCT 600 + 300
[7] = g a.c./ha: PYR 900, TEM 44, PYR + TEM 900 + 44

For `CCCCCCCCSC(=O)Oc1cc(Cl)nnc1-c1ccccc1` [PYR, (6-chloro-3-phenylpyridazin-4-yl) octylsulfanylformate], the “herbicidal effect (h.e.)” value (Brassica napus; 7-14 DAA) was 50%, the “herbicidal effect (h.e.)” value (Brassica napus; 18-28 DAA) was 11% and the “herbicidal effect (h.e.)” value (Brassica napus; 31-48 DAA) was 6%. The “herbicidal effect (h.e.)” value (Capsella bursa-pastoris; 7-14 DAA, # = 3, g a.c./ha: PYR 300, MES 100, PYR + MES 300 + 90) was 51%, the PYR h.e. (Capsella bursa-pastoris; CAPBP 14-20 DAA 300 g a.c./ha) was 59% and the PYR h.e. (Capsella bursa-pastoris; CAPBP 14-20 DAA 600 g a.c./ha) was 65%. The PYR h.e. (Capsella bursa-pastoris; CAPBP 14-20 DAA 900 g a.c./ha) was 73%, the PYR h.e. (Capsella bursa-pastoris; CAPBP 24-31 DAA 300 g a.c./ha) was 53% and the PYR h.e. (Capsella bursa-pastoris; CAPBP 24-31 DAA 600 g a.c./ha) was 61%. For the same compound, the PYR h.e. (Capsella bursa-pastoris; CAPBP 24-31 DAA 900 g a.c./ha) was 73%, the “herbicidal effect (h.e.)” value (Cirsium arvense; 7-14 DAA) was 23% and the “herbicidal effect (h.e.)” value (Cirsium arvense; 31-48 DAA) was 49%. For the same compound, the “herbicidal effect (h.e.)” value (Echinochloa crus-galli; 7-14 DAA, # = 9) was 20%, the “herbicidal effect (h.e.)” value (Echinochloa crus-galli; 18-28 DAA, # = 14) was 23% and the “herbicidal effect (h.e.)” value (Echinochloa crus-galli; 31-48 DAA, # = 13) was 23%. The PYR h.e. (Echinochloa crus-galli; ECHCG 14-20 DAA 300 g a.c./ha) was 10%, the PYR h.e. (Echinochloa crus-galli; ECHCG 14-20 DAA 600 g a.c./ha) was 23% and the PYR h.e. (Echinochloa crus-galli; ECHCG 14-20 DAA 900 g a.c./ha) was 31%. The PYR h.e. (Echinochloa crus-galli; ECHCG 24-31 DAA 300 g a.c./ha) was 0%, the PYR h.e. (Echinochloa crus-galli; ECHCG 24-31 DAA 600 g a.c./ha) was 3% and the PYR h.e. (Echinochloa crus-galli; ECHCG 24-31 DAA 900 g a.c./ha) was 20%. For the same compound, the “herbicidal effect (h.e.)” value (Galinsoga parviflora) was 40%, the “herbicidal effect (h.e.)” value (Hibiscus ternatus) was 36% and the “herbicidal effect (h.e.)” value (Papaver rhoeas; 18-28 DAA) was 3%. For the same compound, the “herbicidal effect (h.e.)” value (Papaver rhoeas; 31-48 DAA) was 3%, the “herbicidal effect (h.e.)” value (Fallopia convolvulus; 7-14 DAA, # = 5, g a.c./ha: PYR 300, MES 100, PYR + MES 300 + 90) was 26% and the “herbicidal effect (h.e.)” value (Fallopia convolvulus; 13-14 DAA, # = 1, g a.c./ha: PYR 450, MES 144, PYR + MES 450 + 144) was 23%. The “herbicidal effect (h.e.)” value (Fallopia convolvulus; 18-28 DAA, # = 8, g a.c./ha: PYR 300, MES 100, PYR + MES 300 + 90) was 32%, the “herbicidal effect (h.e.)” value (Fallopia convolvulus; 31-48 DAA, # = 8, g a.c./ha: PYR 300, MES 100, PYR + MES 300 + 90) was 27% and the PYR h.e. (Fallopia convolvulus; POLCO 14-20 DAA 300 g a.c./ha) was 31%. It also gave a PYR h.e. (Fallopia convolvulus; POLCO 14-20 DAA 600 g a.c./ha) of 34%, a PYR h.e. (Fallopia convolvulus; POLCO 14-20 DAA 900 g a.c./ha) of 47% and a PYR h.e. (Fallopia convolvulus; POLCO 24-31 DAA 300 g a.c./ha) of 29%. For the same compound, the PYR h.e. (Fallopia convolvulus; POLCO 24-31 DAA 600 g a.c./ha) was 29%, the PYR h.e. (Fallopia convolvulus; POLCO 24-31 DAA 900 g a.c./ha) was 43% and the “herbicidal effect (h.e.)” value (Persicaria maculosa; 7-14 DAA, # = 3) was 42%. The “herbicidal effect (h.e.)” value (Persicaria maculosa; 31-48 DAA, # = 4) was 32%, the PYR h.e. (Persicaria maculosa; POLPE 14-20 DAA 300 g a.c./ha) was 15% and the PYR h.e. (Persicaria maculosa; POLPE 14-20 DAA 600 g a.c./ha) was 23%. For the same compound, the PYR h.e. (Persicaria maculosa; POLPE 14-20 DAA 900 g a.c./ha) was 28%, the PYR h.e. (Persicaria maculosa; POLPE 24-31 DAA 300 g a.c./ha) was 17% and the PYR h.e. (Persicaria maculosa; POLPE 24-31 DAA 600 g a.c./ha) was 33%. The PYR h.e. (Persicaria maculosa; POLPE 24-31 DAA 900 g a.c./ha) was 32%, the “herbicidal effect (h.e.)” value (Solanum nigrum; 18-28 DAA, # = 7) was 58% and the “herbicidal effect (h.e.)” value (Solanum nigrum; 31-48 DAA, # = 6) was 55%. The PYR h.e. (Solanum nigrum; SOLNI 14-20 DAA 300 g a.c./ha) was 75%, the PYR h.e. (Solanum nigrum; SOLNI 14-20 DAA 600 g a.c./ha) was 88% and the “herbicidal effect (h.e.)” value (Stachys arvensis) was 35%. For the same compound, the “herbicidal effect (h.e.)” value (Xanthium spinosum) was 5%, the “herbicidal effect (h.e.)” value (Amaranthus retroflexus; g a.c./ha: PYR 450, MES 144, PYR + MES 450 + 144) was 72% and the “herbicidal effect (h.e.)” value (Amaranthus retroflexus; g a.c./ha: PYR 450, TOP 12.4, PYR + TOP 450 + 12.4) was 72%. The “herbicidal effect (h.e.)” value (Digitaria sanguinalis; [1]) was 0%, the “herbicidal effect (h.e.)” value (Digitaria sanguinalis; [2]) was 0% and the “herbicidal effect (h.e.)” value (Digitaria sanguinalis; [3]) was 0%. The “herbicidal effect (h.e.)” value (Digitaria sanguinalis; [4]) was 5%, the “herbicidal effect (h.e.)” value (Digitaria sanguinalis; [5]) was 0% and the “herbicidal effect (h.e.)” value (Digitaria sanguinalis; [6]) was 5%. The “herbicidal effect (h.e.)” value (Digitaria sanguinalis; [7]) was 0%, the “herbicidal effect (h.e.)” value (Setaria verticillata; [1]) was 0% and the “herbicidal effect (h.e.)” value (Setaria verticillata; [2]) was 0%. For the same compound, the “herbicidal effect (h.e.)” value (Setaria verticillata; [3]) was 10%, the “herbicidal effect (h.e.)” value (Setaria verticillata; [4]) was 0% and the “herbicidal effect (h.e.)” value (Setaria verticillata; [5]) was 7%. For the same compound, the “herbicidal effect (h.e.)” value (Setaria verticillata; [6]) was 10%, the “herbicidal effect (h.e.)” value (Setaria verticillata; [7]) was 0% and the PYR h.e. (Galium aparine; GALAP 14-20 DAA 300 g a.c./ha) was 20%. The PYR h.e. (Galium aparine; GALAP 14-20 DAA 600 g a.c./ha) was 30%, the PYR h.e. (Galium aparine; GALAP 14-20 DAA 900 g a.c./ha) was 35% and the PYR h.e. (Galium aparine; GALAP 24-31 DAA 300 g a.c./ha) was 18%. For the same compound, the PYR h.e. (Galium aparine; GALAP 24-31 DAA 600 g a.c./ha) was 30%, the PYR h.e. (Galium aparine; GALAP 24-31 DAA 900 g a.c./ha) was 38% and the PYR h.e. (Mercurialis annua; MERAN 14-20 DAA 300 g a.c./ha) was 48%. The PYR h.e. (Mercurialis annua; MERAN 14-20 DAA 600 g a.c./ha) was 78%, the PYR h.e. (Mercurialis annua; MERAN 24-31 DAA 300 g a.c./ha) was 10% and the PYR h.e. (Mercurialis annua; MERAN 24-31 DAA 600 g a.c./ha) was 33%. The PYR h.e. (Mercurialis annua; MERAN 24-31 DAA 900 g a.c./ha) was 80%, the PYR h.e. (Rumex obtusifolius; RUMOB 14-20 DAA 300 g a.c./ha) was 20% and the PYR h.e. (Rumex obtusifolius; RUMOB 14-20 DAA 600 g a.c./ha) was 30%. It also gave a PYR h.e. (Rumex obtusifolius; RUMOB 14-20 DAA 900 g a.c./ha) of 55%.
